# Results published in patent publication US20020161013A1, “Method of local anesthesia and analgesia” (priority 2001, published 2002).
# Structures can show the parent of a compound that is named as a salt. Where two headings read alike, the source gives them in different places.
# Key:
# rabbits [1] = tested on: rabbits; set-up: species or system New Zealand white rabbits; conditions: rabbit, in vivo
# rabbit eyes [2] = tested on: rabbit eyes; set-up: species or system New Zealand white rabbits; conditions: in vivo
# rabbits [3] = tested on: rabbits; set-up: species or system New Zealand white rabbits; conditions: rabbit, in vivo; remark: listed apart in the source
# [4] = cited from earlier work
# rabbit eyes [5] = conditions: in vivo
smiles,measurement,setting,value
"NC1=N[C@H](O)[C@H]2[C@H]3O[C@]4(O)O[C@@H]([C@@H](O)[C@@]2(N1)[C@@H]4O)[C@]3(O)CO [TTX, tetrodotoxin]",abnormalities in other animals of the group,rabbits [1],No significant abnormalities
same,adverse signs in the TTX-treated eye,rabbits [1],"conjunctival congestion, hydrops (++) and lacrimation"
same,local anesthesia,rabbits [1],local anesthesia to some extent
same,toxic signs observed,rabbits [1],"Signs of convulsion, rigidity and death"
same,local anesthesia by retrobulbar injection compared with lidocaine,rabbit eyes [2],much more potent
same,local anesthesia effect,rabbit eyes [2],weak effect
same,local anesthesia in the treated eyes,rabbit eyes [2],showed local anesthesia in the treated eyes to various extents
same,general examination findings,rabbits [3],"No changes of food-taking pattern, movement, respiration or alertness"
same,toxic signs observed,rabbits [3],"Signs of convulsion, rigidity and death"
CCCCN1CCCCC1C(=O)Nc1c(C)cccc1C (stereo not shown) [bupivacaine],residual diplopia next morning,"[4]; bupivacaine, ophthalmic applications",up to 70 % of patients
same,duration of action,"[4]; bupivacaine, peripheral nerve block",≤ 24 h
"CCN(CC)CC(=O)Nc1c(C)cccc1C [lidocaine, lidocaine hydrochloride, reference compound]",duration of action,rabbit eyes [2],0.34 h
same,onset,rabbit eyes [2],1.94 min
same,magnitude of ERG b wave versus controls,rabbit eyes [5],Neither were differences found
same,duration of action,[4]; in vivo,over 20 minutes
same,onset,[4]; in vivo,about 2 minutes
